Test: Metal reduction assay, Fe^3+ to Fe^2+
Assay type: biochemical
Conditions: 10 μM Fe^3+, PBS pH 7.4, 1 hr 37° C.
Description: The metal reduction assay was performed using a 96-well microtiter plate (Costar) based upon a modification of established protocols (Landers, J. W., et al., Amer. Clin. Path. 29:590 (1958); Landers, J. W., et al., Clinica Chimica Acta 3:329 (1958)). Polypeptides (10 μM) or Vitamin C (100 μM), metal ions (10 μM, Fe(NO3)3 or Cu(NO3)2), and reduced metal ion indicators, bathophenanthrolinedisulfonic acid (BP, for Fe^2+, Sigma, 200 μM) or bathocuproinedisulfonic acid (BC, for Cu^+, Sigma, 200 μM), were coincubated in phosphate buffered saline (PBS), pH 7.4, for 1 hr at 37° C. The metal ion solutions were prepared by direct dilution in the buffer from their aqueous stocks purchased from National Institute of Standards and Technology (NIST). Absorbances were then measured at 536 mn (Fe^2+-BP complex) and 483 nm (Cu^+-BC complex), respectively, using a 96-well plate reader (SPECTRAmax 250, Molecular Devices, CA). In control samples, both metal ion and indicator were present to determine the background buffer signal. As a further control, both metal ion and peptide were present in the absence of indicator to estimate the contribution of light scattering due to turbidity to the absorbance reading at these wavelengths. The net absorbances (ΔA) at 536 nm or 483 nm were obtained by deducting the absorbances from these controls from the absorbances generated by the peptide and metal in the presence of the respective indicator.
The concentrations of reduced metal ions (Fe^2+ or Cu^+) were quantified based on the formula: Fe^2+ or Cu^+ (˜M)=A*10^6/(L*M), where L is the measured equivalent vertical pathlength for a well of 300 μL volume as described in the instrument's specifications manual (0.856 cm for Fe^2+; 1.049 cm for Cu^+); M is the known molecular absorbance (M^−1 cm^−1) which is 7124 (for Fe^2+-BP complex) or 2762 (for Cu^+-BC complex).

Aβ1-40: synthetic human Aβ peptide, residues 1-40
reduction of available Fe^3+: 12%

Reference: patent US20020082273A1, “Agents for use in the treatment of alzheimer's disease” (priority 1998, published 2002)
